The values that follow come from US9877501B2, “Stevia composition” (PureCircle Sdn Bhd, priority 2011, dated 2018).

Like-named read-outs stand apart in the source and are kept apart here.

The conditions of data set [1]: cited from earlier work.
For data set [2] the following is noted: carbonated beverages; Chang and Cook 1983; cited from earlier work.
A short description of data set [3]: Sensory evaluation of zero-calorie carbonated beverage samples by 20 panelists. Particulars: 0.050% stevia composition. The procedure:
The sensory properties were evaluated by 20 panelists.

Where [4] appears, read: sensory evaluations, Crammer and Ikan 1986.

Take `C=C1C[C@@]23CC[C@H]4[C@@](C)(CCC[C@@]4(C)C(=O)O[C@@H]4O[C@H](CO)[C@@H](O)[C@H](O)[C@H]4O)[C@@H]2CC[C@]1(O[C@@H]1O[C@H](CO)[C@@H](O)[C@H](O)[C@H]1O[C@@H]1O[C@@H](C)[C@H](O)[C@@H](O)[C@H]1O)C3` [Dulcoside A]: in data set [1] (Tanaka 1987, Phillips 1989), the “times sweeter than sucrose” value was 30 times.

Consider `C=C1C[C@@]23CC[C@H]4[C@@](C)(CCC[C@@]4(C)C(=O)O[C@@H]4O[C@H](CO)[C@@H](O)[C@H](O)[C@H]4O)[C@@H]2CC[C@]1(O[C@@H]1O[C@H](CO)[C@@H](O)[C@H](O[C@@H]2O[C@H](CO)[C@@H](O)[C@H](O)[C@H]2O)[C@H]1O[C@@H]1O[C@H](CO)[C@@H](O)[C@H](O)[C@H]1O)C3` [Reb A, rebaudioside A], for which the “heat and pH stability” value in data set [2] was “confirmed their heat and pH stability”. Further, in data set [3], the “Number of panelists detected the attribute: Aftertaste” value is reported as 12, the “Number of panelists detected the attribute: Astringent taste” value came out at 9 and the “Number of panelists detected the attribute: Bitter taste” value worked out at 10. Moreover, in data set [1] (Tanaka 1987, Phillips 1989), the “sensory attributes among major steviol glycosides” value was “the least astringent, the least bitter, and the least persistent aftertaste”. The “times sweeter than sucrose” value in data set [1] (setting [4]) is given as 350-450 times.

For the compound `C=C1C[C@@]23CC[C@H]4[C@@](C)(CCC[C@@]4(C)C(=O)O[C@@H]4O[C@H](CO)[C@@H](O)[C@H](O)[C@H]4O)[C@@H]2CC[C@]1(O[C@@H]1O[C@H](CO)[C@@H](O)[C@H](O)[C@H]1O[C@@H]1O[C@H](CO)[C@@H](O)[C@H](O)[C@H]1O)C3` [stevioside], in data set [2], the “heat and pH stability” value was “confirmed their heat and pH stability”. The “times sweeter than sucrose” value in data set [1] (Tanaka 1987, Phillips 1989) is on record as 110-270 times.

As to Rebaudioside B [reb B], the “times sweeter than sucrose” value in data set [1] (setting [4]) is listed as 300-350 times.

For the compound rebaudioside C, in data set [1] (Tanaka 1987, Phillips 1989), the “times sweeter than sucrose” value is 40-60 times.
